Converted amounts (≈) assume the structure as drawn.
Assays:
[1] = system: modified strains SKY54 and SKY197; assay: Yeast strain sensitivity to selected compounds (top-agar death zones / MIC), modified strains; assay type: cell-based, S. cerevisiae; details: for change of sensitivity on induction of HXT9 and HXT11 expression: Gal/Raff containing media; for sensitivity relative to parental strains SKY48 and SKY191, based on the size of the death zones: YPD media, same concentration
Description: As used herein, “hyperpermeable” yeast cells or a “hyperpermeable” yeast strain, are yeast cells and strains which have an increased sensitivity to one or more test compounds, relative to the sensitivity of the yeast cells and strains without the above-described insertion-disruption of genes that alter cellular permeability. Sensitivity to such compounds and small molecules is determined by measuring the MIC (minimal inhibitory concentration) of such compounds to visible growth of yeast cells, disregarding a haze of barely visible growth of such yeast cells.
(§1) Decreasing concentrations of cycloheximide, 4-nitroquinolin-oxide, sulfmethuron methyl, and Zeocin were plated on parental yeast strains SKY48 and SKY191 and the modified yeast strains SKY54 and SKY197. From top to bottom of each plate, and from left to right of each row: 5 μg, 2.5 μg, 1 μg, 0.5 μg, 0.2 μg, and 50 ng of CYH; 2.5 μg, 1.25 μg, 0.5 μg, 0.25 μg, 0.1 μg, and 25 ng of NQO; 100 μg, 50 μg, 20 μg, 10 μg, 4 μg, and 1 μg of SMM; and 100 μg, 50 μg, 20 μg, 10 μg, 4 μg, and 1 μg of Zeo.
Yeast strain sensitivity to selected compounds SKY54 and SKY197 were tested for sensitivity to various concentrations of compounds, including cycloheximide (CYH), 4-nitroquinolin-oxide (NQO), sulfmethuron methyl (SMM) and Zeocin (Zeo), relative to the sensitivity of the parental strains, SKY48 and SKY191 to these compounds. Yeast cells were propagated on YPD or YPG/R plates in top-agar layer containing 1% of low melt SeaPlaque agarose and YPD or YPG/R growth media with glucose or galactose as the carbon source. CYH (5 mg/ml), NQO (2.5 mg/ml), SMM (100 mg/ml) and Zeo (100 mg/ml) stock solutions were diluted 2, 5, 10, 25, and 100-fold, and applied on top-agar growing yeast by means of prone device. Sensitivity to various concentrations of compounds was scored by visualization of growth on this media, and the size of “death zones” of sensitive colonies. Thus, the plates shown in FIG. 15 show the sensitivity of the parental and modified yeast strains to, from top to bottom of each plate, and from left to right of each row, 5 μg, 2.5 μg, 1 μg, 0.5 μg, 0.2 μg, and 50 ng of CYH; 2.5 μg, 1.25 μg, 0.5 μg, 0.25 μg, 0.1 μg, and 25 ng of NQO; 100 μg, 50 μg, 20 μg, 10 μg, 4 μg, and 1 μg of SMM; and 100 μg, 50 μg, 20 μg, 10 μg, 4 μg, and 1 μg of Zeo. […] When SKY54 and SKY197 were incubated on Gal/Raff containing media, thereby inducing expression of HXT9 and HXT11 genes, the sensitivity to CYH and 4-NQO increased. The estimated increase of death zone diameters for 4-NQO for SKY54 and SKY 197 on Gal/Raff media in comparison with the parental strains grown on the same media was ˜32-40%. After 48 hours of incubation on Gal/Raff media, sensitivity to CYH was estimated to be 0.01 μg/ml MIC (minimal inhibitory concentration). The MIC is defined as the lowest concentration (micrograms per milliliter of broth) that inhibited visible growth, disregarding a haze of barely visible growth. Sensitivity to CYH of a yeast strain harboring PDR1 and PDR3 deletions, and the HXT11 gene overexpressed from a multicopy plasmid, was previously reported as having an MIC of 0.03 μg/ml CYH (Nourani et al., 1997, Mol. Cell. Biol. 17:5453-5460). […] A comparative analysis of parental strain SKY48 and obtained SKY54 to 73,400 compounds from the SMT chemical library is shown in Table 2. SKY48 is sensitive to 1,959 compounds while SKY54 is sensitive to 3,011 compounds. Thus, SKY54 was sensitive to 154% as many compounds as the parental strain, SKY48.

[2] = system: yeast strain harboring PDR1 and PDR3 deletions, and the HXT11 gene overexpressed from a multicopy plasmid; details: previously reported, Nourani et al., 1997; cited from earlier work
[3] = system: parental strains SKY48 and SKY191; assay: Yeast strain sensitivity to selected compounds (top-agar death zones), parental strains; assay type: cell-based, S. cerevisiae; details: all concentrations tested (100 μg to 1 μg)
Description: as §1
SKY48 and SKY191 parental strains The parent strains SKY48 and SKY 191 (MATαtrp1 URA3 his3 lexAop-LEU2 cIop-LYS2), with 6 or 2 lexA operators upstream of LEU2, respectively, have been described (Serebriiskii et al., 1999, J. Biol. Chem. 274:17080-17087, which is incorporated herein by reference in its entirety).
Yeast strain sensitivity to selected compounds SKY54 and SKY197 were tested for sensitivity to various concentrations of compounds, including cycloheximide (CYH), 4-nitroquinolin-oxide (NQO), sulfmethuron methyl (SMM) and Zeocin (Zeo), relative to the sensitivity of the parental strains, SKY48 and SKY191 to these compounds. […] Sensitivity to various concentrations of compounds was scored by visualization of growth on this media, and the size of “death zones” of sensitive colonies. […]

Row | Structure (SMILES) | change of sensitivity on induction of HXT9 and HXT11 expression [1] | estimated increase of death zone diameters in comparison with the parental strains ([1]; Gal/Raff media, parental strains grown on the same media) | sensitivity relative to parental strains SKY48 and SKY191, based on the size of the death zones [1] | MIC ([1]; Saccharomyces cerevisiae, SKY54ANDSKY197, 48 h, read-out: MIC (minimal inhibitory concentration)) [µg/mL] | MIC [2] [µg/mL] | sensitivity (growth, size of death zones) [3] | sensitivity (growth, size of death zones) ([1]; SKY54 and SKY197, all concentrations tested (100 μg to 1 μg))
1 | O=[N+]([O-])c1cc[n+]([O-])c2ccccc12 [4-NQO, 4-nitroquinolin-oxide] | increased | 32-40% | significantly more sensitive |  |  |  | 
2 | C[C@@H]1C[C@@H]([C@H](O)CC2CC(=O)NC(=O)C2)C(=O)[C@@H](C)C1 [CYH, cycloheximide] | increased |  | significantly more sensitive | 0.01 (≈ 0.0355 µM) | 0.03 (≈ 0.107 µM) |  | 
3 | COC(=O)c1ccccc1S(=O)(=O)NC(=O)Nc1nc(C)cc(C)n1 [SMM, sulfmethuron methyl] |  |  |  |  |  | no sensitivity | no sensitivity

— patent US6589773B1, “Methods and compositions for a modified yeast strain with increased permeability and uses thereof” (priority 2000, dated 2003)
